≈ marks a conversion by molar mass, not a printed value. Where two headings read alike, the source gives them in different places.
Key:
[1] = system: Mtb H37Rv; assay: Minimum inhibitory concentration, broth microdilution, whole-cell activity; assay type: cell-based, Mycobacterium tuberculosis; settings: for MIC: Mycobacterium tuberculosis, H37RV; for MIC GAST: Mtb H37Rv, GAST medium, MIC = >99% inhibition of cell growth
[2] = system: MDR-TB and XDR-TB strains; assay: microbe, parasite or virus in culture; assay type: cell-based; settings: Mycobacterium tuberculosis
[3] = biological target: FAAL28 (Mycobacterium tuberculosis, UniProt P9WQ59); assay: Coupled continuous enzyme kinetic assay; assay type: biochemical; settings: for Ki^app FAAL28: apparent Ki, Morrison equation, 33 μM tetradecanoic acid
[4] = biological target: FACL19 (Mycobacterium tuberculosis, UniProt P9WQ51); assay: Coupled continuous enzyme kinetic assay; assay type: biochemical; settings: for Ki^app FACL19: apparent Ki, Morrison equation, 250 μM dodecanoic acid
[5] = system: Vero cells; assay: Cytotoxicity, MTT assay; settings: read-out: Cytotox IC50, Vero monkey cells, 72 h
[6] = system: Mtb; settings: cited from earlier work
[7] = read-out: MIC 7H9/palmitate, Mtb H37Rv, 7H9/palmitate medium
[8] = read-out: MICs against MDR-TB and XDR-TB panel in both media
[9] = read-out: MIC 7H9, Mtb H37Rv, 7H9 medium
[10] = read-out: MICs against MDR and XDR Mtb panel in 7H9 medium

Chain of FACL19 (P9WQ51 whole entry): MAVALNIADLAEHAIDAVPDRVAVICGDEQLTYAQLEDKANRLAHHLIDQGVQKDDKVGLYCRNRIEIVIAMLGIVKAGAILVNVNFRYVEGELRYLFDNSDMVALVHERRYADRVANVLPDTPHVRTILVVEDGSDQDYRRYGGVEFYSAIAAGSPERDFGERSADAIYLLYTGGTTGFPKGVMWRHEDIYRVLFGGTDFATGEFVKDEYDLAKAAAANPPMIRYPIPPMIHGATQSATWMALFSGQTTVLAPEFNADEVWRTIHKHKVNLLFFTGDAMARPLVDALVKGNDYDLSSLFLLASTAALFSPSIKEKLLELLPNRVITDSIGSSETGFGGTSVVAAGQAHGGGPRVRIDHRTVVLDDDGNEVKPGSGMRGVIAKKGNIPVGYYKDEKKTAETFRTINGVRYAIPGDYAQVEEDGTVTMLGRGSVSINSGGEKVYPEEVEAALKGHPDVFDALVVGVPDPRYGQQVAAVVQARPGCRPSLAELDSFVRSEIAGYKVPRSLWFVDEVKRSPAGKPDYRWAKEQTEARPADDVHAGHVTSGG
Chain of FAAL28 (P9WQ59 whole entry): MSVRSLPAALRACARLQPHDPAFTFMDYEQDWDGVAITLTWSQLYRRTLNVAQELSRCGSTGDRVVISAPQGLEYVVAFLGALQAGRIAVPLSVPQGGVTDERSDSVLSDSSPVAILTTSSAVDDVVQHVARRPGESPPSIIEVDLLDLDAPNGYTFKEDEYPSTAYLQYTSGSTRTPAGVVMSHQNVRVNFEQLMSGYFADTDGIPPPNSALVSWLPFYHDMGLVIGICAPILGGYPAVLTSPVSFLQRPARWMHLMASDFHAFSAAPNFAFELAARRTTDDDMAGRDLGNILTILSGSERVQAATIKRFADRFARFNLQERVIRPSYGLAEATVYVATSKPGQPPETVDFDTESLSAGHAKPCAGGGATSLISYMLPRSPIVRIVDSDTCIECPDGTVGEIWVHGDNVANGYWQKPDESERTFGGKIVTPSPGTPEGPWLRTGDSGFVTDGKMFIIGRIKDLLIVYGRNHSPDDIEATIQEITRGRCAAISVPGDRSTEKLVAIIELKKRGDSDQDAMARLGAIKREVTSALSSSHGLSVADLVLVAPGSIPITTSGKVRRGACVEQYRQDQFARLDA

Which MIC [1, 7] does the source give for `NCCCCCCCCCCCC(=O)NS(=O)(=O)OC[C@H]1O[C@@H](n2cnc3c(N)ncnc32)[C@H](O)[C@@H]1O` [Compound 29, 5′-O-[N-(12-Aminododecanoyl)sulfamoyl]adenosine] here?
Its MIC is 12.5 to 25 µM (≈ 6.8 to 13.6 µg/mL).

With `CCCCCCCCC/C=C/C(=O)NS(=O)(=O)OC[C@H]1O[C@@H](n2cnc3c(N)ncnc32)[C@H](O)[C@@H]1O` [Compound 23, 5′-O-{N-[(E)-Dodec-2-enoyl]sulfamoyl}adenosine] as the compound, how does the MIC [2, 8] read?
Its MIC is 3.13 to 12.5 µM (≈ 1.65 to 6.58 µg/mL).

For `[N-]=[N+]=NCCCCCCCCCCCC(=O)NS(=O)(=O)OC[C@H]1O[C@@H](n2cnc3c(N)ncnc32)[C@H](O)[C@@H]1O` [Compound 28, 5′-O-[N-(12-Azidododecanoyl)sulfamoyl]adenosine], which “MIC GAST” value [1] is on record?
Its value is 0.098 to 3.13 µM.

And the MIC [1, 9]?
Its MIC is 12.5 to 25 µM (≈ 7.12 to 14.2 µg/mL).

For `CCCCCCCCC[C@@H]1C[C@@H]1C(=O)NS(=O)(=O)OC[C@H]1O[C@@H](n2cnc3c(N)ncnc32)[C@H](O)[C@@H]1O` [Compound 26, 5′-O-{N-[(1S,2R)-2-Nonylcyclopropanecarbonyl]sulfamoyl} adenosine], which “Ki^app FAAL28” value [3] is on record?
The value was “weak inhibition”.

Which “MIC GAST” value [1] does the source give for `CCCCCCCCCOCC(=O)NS(=O)(=O)OC[C@H]1O[C@@H](n2cnc3c(N)ncnc32)[C@H](O)[C@@H]1O` [Compound 36, 5′-O-[N-2-(Nonyloxy)acetylsulfamoyl]adenosine] here?
The value was 0.098 to 0.19 µM.

And the MIC [1, 7]?
Its MIC is 25 to 50 µM (≈ 13.3 to 26.5 µg/mL).

Which MIC [1, 9] does the source give for `CCCCCCCCCCC(C)(C)C(=O)NS(=O)(=O)OC[C@H]1O[C@@H](n2cnc3c(N)ncnc32)[C@H](O)[C@@H]1O` [Compound 35, 5′-O-[N-(2,2-Dimethyldodecanoyl)sulfamoyl]adenosine] here?
Its MIC is greater than 100 µM.

And the MIC [1, 7]?
The MIC was greater than 100 µM.

And the Ki [4]?
The Ki was 54.7 µM.

What about the Ki [3] of the same compound?
The Ki was greater than 100 µM.

With `Nc1ncnc2c1ncn2[C@@H]1O[C@H](COS(=O)(=O)NCCCCCCCCCCCOc2ccccc2)[C@@H](O)[C@H]1O` [Compound 89, 5′-O-[N-(11-Phenoxyundecyl)sulfamoyl]adenosine] as the compound, how does the “Ki^app FAAL28” value [3] read?
The value was “ablated biochemical inhibition”.

Which “fold decrease in potency for FAAL28 relative to 32” value [3] does the source give for `Nc1ncnc2c1ncn2[C@@H]1O[C@H](COS(=O)(=O)NC(=O)CCCCCCCCCOc2ccccc2)[C@@H](O)[C@H]1O` [Compound 38, 5′-O-[N-(10-Phenoxydecanoyl)sulfamoyl]adenosine] here?
The value was 10 fold.

Which “Ki^app FACL19” value [4] does the source give for `Nc1ncnc2c1ncn2[C@@H]1O[C@H](CNS(=O)(=O)NC(=O)CCCCCCCCCCOc2ccccc2)[C@@H](O)[C@H]1O` [Compound 83, 5′-deoxy-5′-{N-[(11-Phenoxyundecanoyl)sulfamoyl]amino} adenosine] here?
The value was “no inhibition”.

And the “fold decrease in potency for FAAL28 relative to 32” value [3]?
The value was 4 fold.

Which results are given for `CCCCCCCCCC[C@H](C)C(=O)NS(=O)(=O)OC[C@H]1O[C@@H](n2cnc3c(N)ncnc32)[C@H](O)[C@@H]1O` [Compound 34, 5′-O-{N-[(S)-2-Methylodecanoyl]sulfamoyl}adenosine]?
MIC [1, 9]: > 100 µM; MIC [1, 7]: > 100 µM; Ki [4]: > 100 µM; Ki [3]: > 100 µM

For `Nc1ncnc2c1ncn2[C@@H]1O[C@H](COS(=O)(=O)NC(=O)CCCCCCCCCCC(=O)O)[C@@H](O)[C@H]1O` [Compound 31, 5′-O-[N-(11-Carboxyundecanoyl)sulfamoyl]adenosine], which MIC [1, 9] is on record?
The MIC was greater than 100 µM.

And the MIC [1, 7]?
Its MIC is greater than 100 µM.

And the Ki [4]?
The Ki was greater than 100 µM.

What about the Ki [3] of the same compound?
Its Ki is greater than 100 µM.

For `CCCCCCCCCCCCCCCCCCCC(=O)NS(=O)(=O)OC[C@H]1O[C@@H](n2cnc3c(N)ncnc32)[C@H](O)[C@@H]1O` [Compound 20, 5′-O-[N-(Icosanoyl)sulfamoyl]adenosine], which IC50 [5] is on record?
Its IC50 is 0.1 µM.

Which “Ki^app FAAL28” value [3] does the source give for `Nc1ncnc2c1ncn2[C@@H]1O[C@H](CNS(=O)(=O)OCCCCCCCCCCCOc2ccccc2)[C@@H](O)[C@H]1O` [Compound 93, 5′-Deoxy-5′-{[(11-phenoxyundecyloxy)sulfonyl]amino}adenosine] here?
The value was “ablated biochemical inhibition”.

With `CCCCCCCCCC[C@@H](C)C(=O)NS(=O)(=O)OC[C@H]1O[C@@H](n2cnc3c(N)ncnc32)[C@H](O)[C@@H]1O` [Compound 33, 5′-O-{N-[(R)-2-Methyldodecanoyl]sulfamoyl}adenosine] as the compound, how does the MIC [1, 9] read?
Its MIC is greater than 100 µM.

And the MIC [1, 7]?
The MIC was greater than 100 µM.

What about the Ki [4] of the same compound?
The Ki was greater than 100 µM.

And the Ki [3]?
The Ki was greater than 100 µM.

For `CCCCCCCCCCCCCC(=O)NS(=O)(=O)OC[C@H]1O[C@@H](n2cnc3c(N)ncnc32)[C@H](O)[C@@H]1O` [Compound 17, 5′-O-[N-(Tetradecanoyl)sulfamoyl]adenosine], which MIC [2, 10] is on record?
The MIC was 3.13 to 12.5 µM (≈ 1.74 to 6.96 µg/mL).

For `CCCCCCCCCCCC(=O)NS(=O)(=O)OC[C@H]1O[C@@H](n2cnc3c(N)ncnc32)[C@H](O)[C@@H]1O` [Compound 9, 5′-O-[N-(Dodecanoyl)sulfamoyl]adenosine], which “MIC GAST” value [1] is on record?
Its value is 0.19 to 0.39 µM.

What about the MIC [2, 10] of the same compound?
The MIC was 3.13 to 12.5 µM (≈ 1.65 to 6.61 µg/mL).

What about the “MIC against Mtb” value [6] of the same compound?
Its value is 100 µM (≈ 52.9 µg/mL).

Which results are given for `Nc1ncnc2c1ncn2[C@@H]1O[C@H](COS(=O)(=O)NC(=O)CCCCCCCCCCOc2ccccc2)[C@@H](O)[C@H]1O` [Compound 32, 5′-O-[N-(11-Phenoxyundecanoyl)sulfamoyl]adenosine]?
Ki^app FACL19 [4]: completely inactive; selectivity for FAAL28 over FACL19 ([3]; ratio of apparent Ki values): greater than 142 fold; MIC [2, 8]: 3.13 to 12.5 µM (≈ 1.9 to 7.58 µg/mL)

Which Ki [4] does the source give for `CCCCCCCCCCCCCCCC(=O)NS(=O)(=O)OC[C@H]1O[C@@H](n2cnc3c(N)ncnc32)[C@H](O)[C@@H]1O` [Compound 18, 5′-O-[N-(Palmitoyl)sulfamoyl]adenosine] here?
The Ki was 3.2 µM.

For `CCCCC/C=C\CCCC(=O)NS(=O)(=O)OC[C@H]1O[C@@H](n2cnc3c(N)ncnc32)[C@H](O)[C@@H]1O` [Compound 25, 5′-O-{N-[(Z)-Undec-5-enoyl]sulfamoyl}adenosine], which MIC [1, 9] is on record?
Its MIC is 100 µM (≈ 51.3 µg/mL).

And the MIC [1, 7]?
The MIC was 100 µM (≈ 51.3 µg/mL).

And the Ki [4]?
Its Ki is greater than 100 µM.

What about the Ki [3] of the same compound?
The Ki was greater than 100 µM.

For `C[C@H](CCC(=O)NS(=O)(=O)OC[C@H]1O[C@@H](n2cnc3c(N)ncnc32)[C@H](O)[C@@H]1O)[C@H]1CC[C@H]2[C@@H]3CC[C@@H]4C[C@H](O)CC[C@]4(C)[C@H]3CC[C@]12C` [Compound 11, reference compound], which “MIC against Mtb” value [6] is on record?
Its value is 50 µM (≈ 35.2 µg/mL).

What does the source list for `COC(=O)CCCCCCCCCCC(=O)NS(=O)(=O)OC[C@H]1O[C@@H](n2cnc3c(N)ncnc32)[C@H](O)[C@@H]1O` [Compound 30, 5′-O-[N-(12-Methoxy-12-oxododecanoyl)sulfamoyl]adenosine]?
MIC GAST [1]: 3.13 µM (≈ 1.79 µg/mL); MIC [1, 9]: 100 µM (≈ 57.3 µg/mL); MIC [1, 7]: > 100 µM; Ki [4]: > 100 µM; Ki [3]: > 100 µM

— PMC7415619 (European journal of medicinal chemistry, 2020)
